Literature values, collected in patent US20070065374A1, “Nanoparticulate leukotriene receptor antagonist/corticosteroid formulations” (Elan Pharma International Limited, priority 2005, published 2007).
Where two headings read alike, the source gives them in different places.

Experiments:
[1] = for time to peak plasma concentrations: after oral administration
[2] = since the approval of zafirlukast

time to peak plasma concentrations [1]	reduction of bioavailability by food ([1]; oral, in 75% of patients)	Churg-Strauss syndrome reported [2]	effect of food on oral bioavailability ([1]; 5 mg tablet (pediatric dose))	effect of food on oral bioavailability ([1]; 10 mg tablet (adult dose))	SMILES
approximately three	approximately 40%	at least eight	–	–	COc1cc(C(=O)NS(=O)(=O)c2ccccc2C)ccc1Cc1cn(C)c2ccc(NC(=O)OC3CCCC3)cc12 [Zafirlukast]
approximately three	–	–	reduced by food	unaffected by food	CC(C)(O)c1ccccc1CC[C@@H](SCC1(CC(=O)O)CC1)c1cccc(/C=C/c2ccc3ccc(Cl)cc3n2)c1 [Montelukast]
